This is an account of results in patent US20260007681A1, “INDOLE DERIVATIVES AS ESTROGEN RECEPTOR DEGRADERS” (REGENTS OF THE UNIVERSITY OF MICHIGAN, priority 2022, published 2026).

pIC50: −log10 of the molar value.

The experiment deals with CRBN/DDB1 (Homo sapiens (Human), UniProt Q96SW2). It counts as binding. Particulars: His tagged CRBN+DDB-DLS7+CXU4, Cy5-labeled Thalidomide probe, one hour incubation; read-out: CRBN HTRF IC50. On the procedure: The binding potency was determined using H-TRF assay technology (Perkin Elmer). Compounds were serially diluted in DMSO and 0.2 μL volume was transferred to white 384-well plate.
On the technique in general: Time-resolved FRET reads energy transfer from a long-lived donor to a nearby acceptor.

Chain of CRBN/DDB1 (Q96SW2 whole entry): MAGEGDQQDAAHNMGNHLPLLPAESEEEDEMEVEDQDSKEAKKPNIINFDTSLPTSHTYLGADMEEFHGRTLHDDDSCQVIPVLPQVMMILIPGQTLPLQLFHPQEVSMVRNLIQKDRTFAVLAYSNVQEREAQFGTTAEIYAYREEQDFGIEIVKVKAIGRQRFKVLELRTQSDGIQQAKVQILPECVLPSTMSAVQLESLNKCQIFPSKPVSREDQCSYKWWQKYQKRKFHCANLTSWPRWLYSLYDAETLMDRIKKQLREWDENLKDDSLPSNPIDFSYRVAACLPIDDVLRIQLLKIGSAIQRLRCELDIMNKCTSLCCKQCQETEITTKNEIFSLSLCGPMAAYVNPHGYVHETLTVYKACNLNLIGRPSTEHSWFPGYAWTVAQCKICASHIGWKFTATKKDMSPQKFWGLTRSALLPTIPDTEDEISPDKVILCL
Chain of CRBN/DDB1 (Q16531 whole entry partner): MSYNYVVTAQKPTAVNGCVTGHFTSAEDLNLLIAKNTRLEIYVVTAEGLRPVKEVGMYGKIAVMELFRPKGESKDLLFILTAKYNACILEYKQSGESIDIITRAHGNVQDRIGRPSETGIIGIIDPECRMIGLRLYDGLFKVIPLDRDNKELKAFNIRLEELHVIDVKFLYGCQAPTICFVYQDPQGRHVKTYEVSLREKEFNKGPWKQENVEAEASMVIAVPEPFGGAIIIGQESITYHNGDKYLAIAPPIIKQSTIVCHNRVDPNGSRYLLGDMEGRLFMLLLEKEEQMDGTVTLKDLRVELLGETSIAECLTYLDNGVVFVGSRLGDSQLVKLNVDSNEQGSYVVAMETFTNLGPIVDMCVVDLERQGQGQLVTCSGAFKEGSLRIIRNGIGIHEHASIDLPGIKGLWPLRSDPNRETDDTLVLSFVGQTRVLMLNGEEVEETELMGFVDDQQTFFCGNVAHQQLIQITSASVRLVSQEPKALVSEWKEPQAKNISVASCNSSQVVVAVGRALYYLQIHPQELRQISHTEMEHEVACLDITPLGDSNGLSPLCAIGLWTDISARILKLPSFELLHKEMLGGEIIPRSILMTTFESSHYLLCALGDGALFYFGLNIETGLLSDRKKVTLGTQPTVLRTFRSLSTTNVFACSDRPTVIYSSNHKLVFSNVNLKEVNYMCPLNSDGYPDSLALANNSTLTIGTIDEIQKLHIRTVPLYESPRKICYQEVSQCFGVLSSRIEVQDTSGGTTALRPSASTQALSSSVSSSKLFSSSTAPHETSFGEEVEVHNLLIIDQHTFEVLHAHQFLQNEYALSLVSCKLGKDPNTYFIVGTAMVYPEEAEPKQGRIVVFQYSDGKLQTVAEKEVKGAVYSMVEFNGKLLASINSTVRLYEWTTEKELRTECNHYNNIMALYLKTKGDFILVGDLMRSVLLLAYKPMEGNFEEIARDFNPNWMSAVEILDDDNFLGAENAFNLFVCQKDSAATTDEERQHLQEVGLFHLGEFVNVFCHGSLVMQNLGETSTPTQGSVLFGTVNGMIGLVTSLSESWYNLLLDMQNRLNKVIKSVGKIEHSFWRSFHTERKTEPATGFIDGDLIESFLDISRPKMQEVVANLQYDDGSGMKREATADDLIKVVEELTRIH

For orientation: pIC50 means −log10 of the IC50, conventionally taken in molar units. For `C[C@@H]1Cc2c([nH]c3ccccc23)[C@@H](c2cnc(N3CCC(N4CCN(c5ccc(NC6CCC(=O)NC6=O)cc5F)CC4)CC3)nc2)N1CC(F)F` (stereo partly drawn) [Compound A1, 3-((4-(4-(1-(5-((1R,3R)-2-(2,2-difluoroethyl)-3-methyl-2,3,4,9-tetrahydro-1H-pyrido[3,4-b]indol-1-yl)pyrimidin-2-yl)piperidin-4-yl)piperazin-1-yl)-3-fluorophenyl)amino)piperidine-2,6-dione], the negative logarithm of the IC50 (pIC50) is 5.30 to 6.30.
For the compound `C[C@@H]1Cc2c([nH]c3ccccc23)[C@@H](c2cnc(N3CCC(N4CCC(c5ccc(NC6CCC(=O)NC6=O)cc5F)CC4)CC3)nc2)N1CC(F)F` (stereo partly drawn) [Compound A3, 3-((4-(1′-(5-((1R,3R)-2-(2,2-difluoroethyl)-3-methyl-2,3,4,9-tetrahydro-1H-pyrido[3,4-b]indol-1-yl)pyrimidin-2-yl)-[1,4′-bipiperidin]-4-yl)-3-fluorophenyl)amino)piperidine-2,6-dione], the pIC50 was 6.30 to 7.30.
With `C[C@@H]1Cc2c([nH]c3ccccc23)[C@@H](c2cnc(N3C[C@@H]4[C@@H](CN5CCN6c7cc8c(cc7OC[C@@H]6C5)C(=O)N(C5CCC(=O)NC5=O)C8)[C@@H]4C3)nc2)N1CC(F)F` (stereo partly drawn) [Compound A4, (S)-3-((S)-3-(((1R,5S,6S)-3-(5-((1R,3R)-2-(2,2-difluoroethyl)-3-methyl-2,3,4,9-tetrahydro-1H-pyrido[3,4-b]indol-1-yl)pyrimidin-2-yl)-3-azabicyclo[3.1.0]hexan-6-yl)methyl)-8-oxo-1,2,3,4,4a,5,8,10-octahydro-9H-pyrazino[1′,2′:4,5][1,4]oxazino[2,3-f]isoindol-9-yl)piperidine-2,6-dione], the pIC50 is 5.30 to 6.30.
In the case of `C[C@@H]1Cc2c([nH]c3ccccc23)[C@@H](c2cnc(N3CCC4(CC3)CC(CN3CCN5c6ccc7c(c6OC[C@@H]5C3)CN(C3CCC(=O)NC3=O)C7=O)C4)nc2)N1CC(F)F` (stereo partly drawn) [Compound A6, 3-((S)-7-((7-(5-((1R,3R)-2-(2,2-difluoroethyl)-3-methyl-2,3,4,9-tetrahydro-1H-pyrido[3,4-b]indol-1-yl)pyrimidin-2-yl)-7-azaspiro[3.5]nonan-2-yl)methyl)-1-oxo-1,3,5,5a,6,7,8,9-octahydro-2H-pyrazino[1′,2′:4,5][1,4]oxazino[2,3-e]isoindol-2-yl)piperidine-2,6-dione], the pIC50 was above 7.30.
Regarding `COc1ccc(C(=O)N2CCC(CN3CCN(c4ncc([C@@H]5c6[nH]c7ccccc7c6C[C@@H](C)N5CC(F)F)cn4)CC3)CC2)cc1N1CCC(=O)NC1=O` [Compound A7, 1-(5-(4-((4-(5-((1R,3R)-2-(2,2-difluoroethyl)-3-methyl-2,3,4,9-tetrahydro-1H-pyrido[3,4-b]indol-1-yl)pyrimidin-2-yl)piperazin-1-yl)methyl)piperidine-1-carbonyl)-2-methoxyphenyl) dihydropyrimidine-2,4(1H,3H)-dione], the pIC50 was 5.30 to 6.30.
As to `CS(=O)(=O)N1CCc2c([nH]c3ccccc23)[C@H]1c1c(F)cc(N2CCC3(CCN(C(=O)CN4Cc5cc6c(cc5C4)C(=O)N(C4CCC(=O)NC4=O)C6=O)CC3)CC2)cc1F` (stereo partly drawn) [Compound A8, 6-(2-(9-(3,5-difluoro-4-((R)-2-(methylsulfonyl)-2,3,4,9-tetrahydro-1H-pyrido[3,4-b]indol-1-yl)phenyl)-3,9-diazaspiro[5.5]undecan-3-yl)-2-oxoethyl)-2-(2,6-dioxopiperidin-3-yl)-6,7-dihydropyrrolo[3,4-f]isoindole-1,3(2H,5H)-dione], the pIC50 is below 5.30.
The value for `C[C@@H]1Cc2c([nH]c3ccccc23)[C@@H](c2cnc(N3C[C@@H]4[C@H](CN5CCN6c7cc8c(cc7OC[C@@H]6C5)C(=O)N([C@H]5CCC(=O)NC5=O)C8)[C@@H]4C3)nc2)N1CC(C)(C)F` [Compound A13, (S)-3-((S)-3-(((1R,5S,6R)-3-(5-((1R,3R)-2-(2-fluoro-2-methylpropyl)-3-methyl-2,3,4,9-tetrahydro-1H-pyrido[3,4-b]indol-1-yl)pyrimidin-2-yl)-3-azabicyclo[3.1.0]hexan-6-yl)methyl)-8-oxo-1,2,3,4,4a,5,8,10-octahydro-9H-pyrazino[1′,2′:4,5][1,4]oxazino[2,3-f]isoindol-9-yl)piperidine-2,6-dione] was 6.30 to 7.30; that for `C[C@@H]1Cc2c([nH]c3ccccc23)[C@@H](c2cnc(N3CC[C@@H](CN4CCN5c6ccc7c(c6OC[C@@H]5C4)CN(C4CCC(=O)NC4=O)C7=O)C3)nc2)N1CC(F)F` (stereo partly drawn) [Compound A14, 3-((S)-7-(((S)-1-(5-((1R,3R)-2-(2,2-difluoroethyl)-3-methyl-2,3,4,9-tetrahydro-1H-pyrido[3,4-b]indol-1-yl)pyrimidin-2-yl)pyrrolidin-3-yl)methyl)-1-oxo-1,3,5,5a,6,7,8,9-octahydro-2H-pyrazino[1′,2′:4,5][1,4]oxazino[2,3-e]isoindol-2-yl)piperidine-2,6-dione] was above 7.30; that for `Cc1nn(C2CCC(=O)NC2=O)c2ccc(N3CCN(CC4CC5(CCN(c6ncc([C@@H]7c8[nH]c9ccccc9c8C[C@@H](C)N7CC(C)(C)F)cn6)CC5)C4)CC3)cc12` (stereo partly drawn) [Compound A15, 3-(5-(4-((7-(5-((1R,3R)-2-(2-fluoro-2-methylpropyl)-3-methyl-2,3,4,9-tetrahydro-1H-pyrido[3,4-b]indol-1-yl)pyrimidin-2-yl)-7-azaspiro[3.5]nonan-2-yl)methyl)piperazin-1-yl)-3-methyl-1H-indazol-1-yl)piperidine-2,6-dione] was above 7.30.
As to `C[C@@H]1Cc2c([nH]c3ccccc23)[C@@H](c2cnc(N3CCC4(CC3)CC(CN3CCN(c5ccc(NC6CCC(=O)NC6=O)cc5F)CC3)C4)nc2)N1CC(F)F` (stereo partly drawn) [Compound A16, 3-((4-(4-((7-(5-((1R,3R)-2-(2,2-difluoroethyl)-3-methyl-2,3,4,9-tetrahydro-1H-pyrido[3,4-b]indol-1-yl)pyrimidin-2-yl)-7-azaspiro[3.5]nonan-2-yl)methyl)piperazin-1-yl)-3-fluorophenyl)amino)piperidine-2,6-dione], the pIC50 is 6.30 to 7.30.
In the case of `CS(=O)(=O)N1CCc2c([nH]c3ccccc23)[C@H]1c1c(F)cc(N2CCC(CN3CCN4c5cc6c(cc5OC[C@@H]4C3)C(=O)N([C@H]3CCC(=O)NC3=O)C6)CC2)cc1F` [Compound A17, (S)-3-((S)-3-((1-(3,5-difluoro-4-((R)-2-(methylsulfonyl)-2,3,4,9-tetrahydro-1H-pyrido[3,4-b]indol-1-yl)phenyl)piperidin-4-yl)methyl)-8-oxo-1,2,3,4,4a,5,8,10-octahydro-9H-pyrazino[1′,2′:4,5][1,4]oxazino[2,3-f]isoindol-9-yl)piperidine-2,6-dione], the pIC50 was below 5.30.
For the compound `C[C@@H]1Cc2c([nH]c3ccccc23)[C@@H](c2cnc(OC3CC(C(=O)N4CCC(N5Cc6cc7c(cc6C5)C(=O)N(C5CCC(=O)NC5=O)C7=O)CC4)C3)nc2)N1CC(F)F` (stereo partly drawn) [Compound A18, 6-(1-((1R,3r)-3-((5-((1R,3R)-2-(2,2-difluoroethyl)-3-methyl-2,3,4,9-tetrahydro-1H-pyrido[3,4-b]indol-1-yl)pyrimidin-2-yl)oxy)cyclobutane-1-carbonyl)piperidin-4-yl)-2-(2,6-dioxopiperidin-3-yl)-6,7-dihydropyrrolo[3,4-f]isoindole-1,3(2H,5H)-dione], the pIC50 was 6.30 to 7.30.
The value for `CS(=O)(=O)N1CCc2c([nH]c3ccccc23)[C@@H]1c1c(F)cc(N2CCC3(CCN(C(=O)CN4Cc5cc6c(cc5C4)C(=O)N(C4CCC(=O)NC4=O)C6=O)CC3)CC2)cc1F` (stereo partly drawn) [Compound A20, 6-(2-(9-(3,5-difluoro-4-((S)-2-(methylsulfonyl)-2,3,4,9-tetrahydro-1H-pyrido[3,4-b]indol-1-yl)phenyl)-3,9-diazaspiro[5.5]undecan-3-yl)-2-oxoethyl)-2-(2,6-dioxopiperidin-3-yl)-6,7-dihydropyrrolo[3,4-f]isoindole-1,3(2H,5H)-dione] was below 5.30.
`CS(=O)(=O)N1CCc2c([nH]c3ccccc23)[C@H]1c1c(F)cc(N2CCC3(CCN(C(=O)CN4Cc5cc6c(cc5C4)C(=O)N(C4CCC(=O)NC4=O)C6=O)CC3)CC2)cc1F` (stereo partly drawn) [Compound A21, 6-(2-(9-(3,5-difluoro-4-((R)-2-(methylsulfonyl)-2,3,4,9-tetrahydro-1H-pyrido[3,4-b]indol-1-yl)phenyl)-3,9-diazaspiro[5.5]undecan-3-yl)-2-oxoethyl)-2-(2,6-dioxopiperidin-3-yl)-6,7-dihydropyrrolo[3,4-f]isoindole-1,3(2H,5H)-dione]: the negative logarithm of the IC50 (pIC50) was below 5.30.
For `C[C@@H]1Cc2c([nH]c3ccccc23)[C@@H](c2cnc(N3CCC4(CC3)CC(CN3CCC5(CC3)COc3cc6c(cc35)CN(C3CCC(=O)NC3=O)C6=O)C4)nc2)N1CC(F)F` (stereo partly drawn) [Compound A26, 3-(1′-((7-(5-((1R,3R)-2-(2,2-difluoroethyl)-3-methyl-2,3,4,9-tetrahydro-1H-pyrido[3,4-b]indol-1-yl)pyrimidin-2-yl)-7-azaspiro[3.5]nonan-2-yl)methyl)-7-oxo-5,7-dihydro-2H,6H-spiro[furo[2,3-f]isoindole-3,4′-piperidin]-6-yl)piperidine-2,6-dione], the pIC50 is 5.30 to 6.30.
